Literature values, collected in PubChem BioAssay AID1259409 (Chemical Carcinogenesis Research Information System (CCRIS), 2018).

Tested on: rodent chemically induced tumor inhibition, incidence and multiplicity
Experiment: CCRIS tumor inhibitor studies

O=c1c(-c2ccc(O)cc2)coc2cc(O)cc(O)c12
tumour outcome (control, treated, inhibition, significance) (Carcinogen: 7,12-DIMETHYLBENZ[A]ANTHRACENE (57-97-6), Dose [Inhibitor]: 140 MG/KG DIET FOR 17 WKS (STUDY DURATION: 17 WKS), Route [Inhibitor]: DIET, Species: RAT, Strain/Sex: SPRAGUE-DAWLEY/FEMALE (20,18)/(20,19), Target Tissue: Type of Lesion: MAMMARY, Dose [Carcinogen]: 12.5 MG ONCE 1 WK AFTER START OF DIET (STUDY DURATION: 17 WKS)): 95%, 85%, 11%, p=0.408 | tumour outcome (control, treated, inhibition, significance) (Carcinogen: 7,12-DIMETHYLBENZ[A]ANTHRACENE [57-97-6], Dose [Inhibitor]: 20 UG/L IN 0.05 ML PEANUT OIL 2X/WK FOR 2 WK BEGINNING AT 7 D OF AGE (STUDY DURATION: 24 WK), Route [Inhibitor]: SUBCUTANEOUS, Species: RAT, Strain/Sex: SPRAGUE-DAWLEY/FEMALE, Target Tissue: Type of Lesion: MAMMARY GLAND: TUMOR, Dose [Carcinogen]: 10 MG IN 1 ML PEANUT OIL ONCE AT 45 D OF AGE (STUDY DURATION: 24 WK), Promoter: NONE): 17/30 (57%), 13/30 (43%), 25%, not significant | tumour outcome (control, treated, inhibition, significance) (Carcinogen: 7,12-DIMETHYLBENZ[A]ANTHRACENE, 57-97-6, Dose [Inhibitor]: 0, 25 PPM IN DIET FOR 50 WK BEGINNING 1 WK POST-CARCINOGEN DOSE (STUDY DURATION: 51 WK), Route [Inhibitor]: ORAL, Species: RAT, Strain/Sex: SPRAGUE-DAWLEY/FEMALE, Target Tissue: Type of Lesion: OVARY: ADENOCARCINOMA, Dose [Carcinogen]: 0.01 ML OF 0.5% DMBA IN OLIVE OIL INTO THE LEFT OVARY, ONCE, UNDER PENTOBARBITAL ANESTHESIA, Promoter: NONE USED): 7/20 (35%), 1/20 (5%), 86%, p=0.02 | tumour outcome (control, treated, inhibition, significance) (Carcinogen: 7,12-DIMETHYLBENZ[A]ANTHRACENE, 57-97-6, Dose [Inhibitor]: 0, 250 PPM IN DIET FOR 50 WK BEGINNING 1 WK POST-CARCINOGEN DOSE (STUDY DURATION: 51 WK), Route [Inhibitor]: ORAL, Species: RAT, Strain/Sex: SPRAGUE-DAWLEY/FEMALE, Target Tissue: Type of Lesion: OVARY: ADENOCARCINOMA, Dose [Carcinogen]: 0.01 ML OF 0.5% DMBA IN OLIVE OIL INTO THE LEFT OVARY, ONCE, UNDER PENTOBARBITAL ANESTHESIA, Promoter: NONE USED): 7/20 (35%), 0/20 (0%), 100%, p=0.0042 | tumour outcome (control, treated, inhibition, significance) (Carcinogen: 7,12-DIMETHYLBENZ[A]ANTHRACENE, 57-97-6, Dose [Inhibitor]: 0, 500 UG/G BW ONCE ON DAYS 16, 18 AND 20 OF AGE (STUDY DURATION: 200 D), Route [Inhibitor]: SUBCUTANEOUS, Species: RAT, Strain/Sex: SPRAGUE-DAWLEY/FEMALE, Target Tissue: Type of Lesion: MAMMARY GLAND: TUMOR, Dose [Carcinogen]: 80 UG/G BW IN SESAME OIL ONCE AT 50 DAYS OF AGE, Promoter: NONE USED): 92%, 85%, 8%, not significant | outcome (Carcinogen: Dimethylbenzanthracene, 57-97-6, Dose [Inhibitor]: 10 mg/kg bw/day, suspended in distilled water daily by gavage, dose duration 12 wk, study duration 18 wk, Route [Inhibitor]: Oral, Species: Hamster, Strain/Sex: Syrian golden/Male, Target Tissue: Type of Lesion: Oral cavity, Dose [Carcinogen]: 100 ul of 0.5% DMBA in mineral oil applied with a paint brush 3 times/wk for 6 wk, Promoter: None): 15/28 (53%), 11/27 (40.7%), not significant | tumour outcome (control, treated, inhibition, significance) (Carcinogen: N-METHYL-N'-NITRO-N-NITROSOGUANADINE, 70-25-7, Dose [Inhibitor]: 0, 15 MG/KG 1/2 D FOR 26 WK BEGINNING 1 WK POST CARCINOGEN TREATMENT (STUDY DURATION: 52 WK), Route [Inhibitor]: SUBCUTANEOUS, Species: RAT, Strain/Sex: WISTAR/MALE, Target Tissue: Type of Lesion: STOMACH: ADENOCARCINOMA, Dose [Carcinogen]: 25 UG/ML IN DRINKING WATER FOR 25 WK, Promoter: SODIUM CHLORIDE, 7647-14-5): 18/20 (90%), 12/20 (60%), 33%, not significant | tumour outcome (control, treated, inhibition, significance) (Carcinogen: N-METHYL-N-NITROSOUREA, 684-93-5, Dose [Inhibitor]: 0, 1 MG/30 G BW 1/4 WK FOR 25 WK BEGINNING 5 WK POST CARCINOGEN TREATMENT (STUDY DURATION: 30 WK), Route [Inhibitor]: SUBCUTANEOUS, Species: MOUSE, Strain/Sex: ICR/FEMALE, Target Tissue: Type of Lesion: UTERUS (LEFT): ADENOCARCINOMA, Dose [Carcinogen]: 0.1 MG/KG BW INJECTED INTO LEFT UTERINE TUBE ONCE): 3/26 (11%), 0/15 (0%), 100%, not significant | tumour outcome (control, treated, inhibition, significance) (Carcinogen: N-METHYL-N-NITROSOUREA, 684-93-5, Dose [Inhibitor]: 0, 1 MG/30 G BW 1/4 WK FOR 25 WK BEGINNING 5 WK POST CARCINOGEN TREATMENT (STUDY DURATION: 30 WK), Route [Inhibitor]: SUBCUTANEOUS, Species: MOUSE, Strain/Sex: ICR/FEMALE, Target Tissue: Type of Lesion: UTERUS (LEFT): ADENOCARCINOMA, Dose [Carcinogen]: 0.1 MG/KG BW INJECTED INTO LEFT UTERINE TUBE ONCE, Promoter: 17-BETA-ESTRADIOL, 50-28-2): 8/24 (33%), 0/19 (0%), 100%, p<0.01 | tumour outcome (control, treated, inhibition, significance) (Carcinogen: N-METHYL-N;-NITRO-N-NITROSOGUANIDINE, 70-25-7, Carcinogen: N-METHYL-N;-NITRO-N-NITROSOGUANIDINE, 70-25-7, Dose [Inhibitor]: 0, 30 MG/KG 1/2 FOR 26 WK BEGINNING 1 WK POST CARCINOGEN TREATMENT (STUDY DURATION: 52 WK), Route [Inhibitor]: SUBCUTANEOUS, Species: RAT, Strain/Sex: WISTAR/MALE, Target Tissue: Type of Lesion: STOMACH: ADENOCARCINOMA, Dose [Carcinogen]: 25 UG/ML IN DRINKING WATER FOR 25 WK, Promoter: SODIUM CHLORIDE, 7647-14-5): 18/20 (90%), 7/19 (37%), 59%, p<0.05

CC1(C)O[C@@H]2C[C@H]3[C@@H]4CCC5=CC(=O)C=C[C@]5(C)[C@@]4(F)[C@@H](O)C[C@]3(C)[C@]2(C(=O)CO)O1
tumour outcome (control, treated, inhibition, significance) (Carcinogen: UVB IRRADIATION, Dose [Inhibitor]: 14.4 NMOL IN 0.1 ML ACETONE 5/WK FOR 4 WK IMMEDIATELY AFTER EACH UVB EXPOSURE FOLLOWED BY 48 WK OBSERVATION PERIOD (STUD, Route [Inhibitor]: DERMAL, Species: MOUSE, Strain/Sex: SKH/HRL/FEMALE, Target Tissue: Type of Lesion: SKIN: TUMOR, Dose [Carcinogen]: 0.3 KJ/SQM ON FIRST DAY, 0.6 KJ/SQM ON SECOND DAY AND ALL SUBSEQUENT DAYS 0.9 KJ/SQM ADMINISTERED 5 D/WK FOR 4 WK, Promoter: NONE USED): 8/27 (30%), 4/27 (15%), 50%, not significant

C/C(=C\c1ccc(C(=O)O)cc1)c1ccc2c(c1)C(C)(C)CCC2(C)C
tumour outcome (control, treated, inhibition, significance) (Carcinogen: 7,12-DIMETHYLBENZ[A]ANTHRACENE, 57-97-6, Dose [Inhibitor]: 0.17 NMOL IN 0.2 ML ACETONE 1 HR PRIOR TO EACH PROMOTER DOSE FOR 12 WK (STUDY DURATION: 14 WK), Route [Inhibitor]: DERMAL, Species: MOUSE, Strain/Sex: SENCAR/FEMALE, Target Tissue: Type of Lesion: SKIN: PAPILLOMA, Dose [Carcinogen]: 200 NMOL IN 0.2 ML ACETONE ONCE, Promoter: 12-O-TETRADECANOYLPHORBOL-13-ACETATE, 16561-29-8): 100%, 100%, 0%, not calculated | tumour outcome (control, treated, inhibition, significance) (Carcinogen: 7,12-DIMETHYLBENZ[A]ANTHRACENE, 57-97-6, Dose [Inhibitor]: 0.17 NMOL IN 0.2 ML ACETONE 1 HR PRIOR TO EACH PROMOTER DOSE FOR 20 WK (STUDY DURATION: 22 WK), Route [Inhibitor]: DERMAL, Species: MOUSE, Strain/Sex: CD-1/FEMALE, Target Tissue: Type of Lesion: SKIN: PAPILLOMA, Dose [Carcinogen]: 200 NMOL IN 0.2 ML ACETONE ONCE, Promoter: 12-O-TETRADECANOYLPHORBOL-13-ACETATE, 16561-29-8): 94%, 80%, 15%, not calculated | tumour outcome (control, treated, inhibition, significance) (Carcinogen: 7,12-DIMETHYLBENZ[A]ANTHRACENE, 57-97-6, Dose [Inhibitor]: 1.7 NMOL IN 0.2 ML ACETONE 1 HR PRIOR TO EACH PROMOTER DOSE FOR 12 WK (STUDY DURATION: 14 WK), Route [Inhibitor]: DERMAL, Species: MOUSE, Strain/Sex: SENCAR/FEMALE, Target Tissue: Type of Lesion: SKIN: PAPILLOMA, Dose [Carcinogen]: 200 NMOL IN 0.2 ML ACETONE ONCE, Promoter: 12-O-TETRADECANOYLPHORBOL-13-ACETATE, 16561-29-8): 100%, 78%, 22%, not calculated | tumour outcome (control, treated, inhibition, significance) (Carcinogen: 7,12-DIMETHYLBENZ[A]ANTHRACENE, 57-97-6, Dose [Inhibitor]: 1.7 NMOL IN 0.2 ML ACETONE 1 HR PRIOR TO EACH PROMOTER DOSE FOR 20 WK (STUDY DURATION: 22 WK), Route [Inhibitor]: DERMAL, Species: MOUSE, Strain/Sex: CD-1/FEMALE, Target Tissue: Type of Lesion: SKIN: PAPILLOMA, Dose [Carcinogen]: 200 NMOL IN 0.2 ML ACETONE ONCE, Promoter: 12-O-TETRADECANOYLPHORBOL-13-ACETATE, 16561-29-8): 94%, 31%, 67%, not calculated | tumour outcome (control, treated, inhibition, significance) (Carcinogen: 7,12-DIMETHYLBENZ[A]ANTHRACENE, 57-97-6, Dose [Inhibitor]: 17 NMOL IN 0.2 ML ACETONE 1 HR PRIOR TO EACH PROMOTER DOSE FOR 12 WK (STUDY DURATION: 14 WK), Route [Inhibitor]: DERMAL, Species: MOUSE, Strain/Sex: SENCAR/FEMALE, Target Tissue: Type of Lesion: SKIN: PAPILLOMA, Dose [Carcinogen]: 200 NMOL IN 0.2 ML ACETONE ONCE, Promoter: 12-O-TETRADECANOYLPHORBOL-13-ACETATE, 16561-29-8): 100%, 0%, 100%, not calculated

Nc1c(Br)cc(Br)cc1CNC1CCC(O)CC1 (configuration not stated)
tumour outcome (control, treated, inhibition, significance) (Carcinogen: N-METHYL-N'-NITRO-N-NITROSOGUANIDINE [70-25-7], Dose [Inhibitor]: 0, 25 MG/KG BW 1X/2 D FOR 26 WK BEGINNING 1 WK POST LAST CARCINOGEN DOSE (STUDY DURATION: 52 WK), Route [Inhibitor]: SUBCUTANEOUS, Species: RAT, Strain/Sex: WISTAR/MALE, Target Tissue: Type of Lesion: STOMACH: TUMOR, Dose [Carcinogen]: 25 UG/ML IN DRINKING WATER FOR 25 WK (STUDY DURATION: 52 WK), Promoter: AMMONIUM ACETATE [631-61-8], SODIUM HYPOCLORITE [7681-52-9]): 17/20 (85%), 6/19 (32%), 62%, p<0.01
